Results on 35 compounds are retold here after patent US12509474B2, “Inhibitors of complement factors and uses thereof” (Annexon, Inc., priority 2020, dated 2025).

For the test, the target named is T1, human C1s protein (Homo sapiens, UniProt P09871).
T1 construct: A104
T1 sequence (P09871 16-688): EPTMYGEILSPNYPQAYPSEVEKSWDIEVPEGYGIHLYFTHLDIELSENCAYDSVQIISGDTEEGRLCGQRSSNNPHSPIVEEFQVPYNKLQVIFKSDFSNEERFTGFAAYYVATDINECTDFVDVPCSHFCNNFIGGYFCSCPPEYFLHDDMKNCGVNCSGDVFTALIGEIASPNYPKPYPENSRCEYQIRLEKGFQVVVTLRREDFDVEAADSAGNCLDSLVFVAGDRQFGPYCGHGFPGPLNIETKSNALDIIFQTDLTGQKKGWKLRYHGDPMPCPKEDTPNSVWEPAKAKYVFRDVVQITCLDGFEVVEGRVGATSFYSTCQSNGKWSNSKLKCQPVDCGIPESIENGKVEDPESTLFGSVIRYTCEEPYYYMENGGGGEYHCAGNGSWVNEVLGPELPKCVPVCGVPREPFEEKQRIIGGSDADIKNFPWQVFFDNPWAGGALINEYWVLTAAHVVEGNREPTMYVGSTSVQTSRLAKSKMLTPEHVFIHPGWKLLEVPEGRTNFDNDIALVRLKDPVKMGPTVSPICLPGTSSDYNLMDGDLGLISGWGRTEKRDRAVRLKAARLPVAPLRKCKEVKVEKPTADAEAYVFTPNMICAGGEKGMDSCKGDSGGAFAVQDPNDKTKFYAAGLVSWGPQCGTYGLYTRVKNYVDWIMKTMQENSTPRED
Put plainly: C1s enzymatic assay (hydrolysis of YLGR-Rh110-dPro). The test is classed as biochemical. The following applies: substrate YLGR-Rh110-dPro 20 μM, 15 min pre-incubation, 60 min RT, fluorescence, read-out: hC1s pIC50 (converted). As for the experimental part: Compound Testing in the C1s Enzymatic Assay
The enzyme cleaves the substrate with the release of Rh110 which is highly fluorescent. C1s inhibitors prevent the hydrolysis of the substrate thus resulting in a decrease of the signal.
On the day of the experiment 0.1 mg/mL BSA (Sigma, B4287) is added fresh to the buffer. The test item stock solutions are serially diluted 1:3 or 1:4 or 1:5 with DMSO, 11-point curves, in a 384-well compound plate. Nafamostat concentration curve is always included in the assay plate as a reference control.
The high controls are prepared dispensing in 0.25 μL DMSO in column 23, rows AH or AP and low controls with 0.25 μL of 0.1 M Nafamostat. […] The YLGR-Rh110-dPro substrate is prepared as 2× of the final assay concentration of 20 μM. 1/well of 2× enzyme solution is dispensed and pre-incubated for 15 min with the compounds. The enzymatic reaction is then started with 5 μL/well of the 2× substrate solution.

Counter-ions that a name gives are not always drawn.

In the case of `COc1c(-c2ccc3c(N)nnc(C)c3c2)cc(B(O)O)cc1C(F)(F)F` [Example 49, [3-(1-amino-4-methylphthalazin-6-yl)-4-methoxy-5-(trifluoromethyl)phenyl]boronic Acid], the IC50 was 1.91 nM. Regarding `COc1cc(Cl)c(B(O)O)cc1-c1ccc2c(N)nnc(C)c2c1` [Example 50, [5-(1-amino-4-methylphthalazin-6-yl)-2-chloro-4-methoxyphenyl]boronic Acid], the IC50 is 0.891 nM.

For `Nc1cnnc2cc(-c3cc(B(O)O)ccc3OC3CCOCC3)ccc12` [Example 51, [3-(4-aminocinnolin-7-yl)-4-(oxan-4-yloxy)phenyl]boronic Acid Formic Acid Salt], the IC50 was 0.724 nM. For `COc1ccc(B(O)O)cc1-c1cc(F)c2c(N)nnc(C)c2c1` [Example 55] the value was 6.61 nM. For `Cc1nnc(N)c2ccc(-c3ccc4c(c3)B(O)OC(=O)C4)cc12` [Example 56, Trifluoroacetic Acid Salt] the value was 5.89 nM; for `COc1c(F)cc(B(O)O)cc1-c1ccc2c(N)nnc(C)c2c1` [Example 57, [3-(1-amino-4-methylphthalazin-6-yl)-5-fluoro-4-methoxyphenyl]boronic Acid Trifluoroacetic Acid Salt], 1.48 nM.

Turning to `COc1c(-c2ccc3c(N)cnnc3c2)cc(B(O)O)cc1C1CCOCC1` [Example 58, [3-(4-aminocinnolin-7-yl)-4-methoxy-5-(oxan-4-yl)phenyl]boronic Acid], the IC50 is 3.39 nM. For `Cc1nnc(N)c2ccc(-c3cc(B(O)O)ccc3NC(=O)CC(C)C)cc12` [Example 59, [3-(1-amino-4-methylphthalazin-6-yl)-4-(3-methylbutanoylamino)phenyl]boronic Acid Formic Acid Salt] the value was 3.24 nM. For `Cc1nnc(N)c2ccc(-c3cc(B(O)O)ccc3NC(=O)CCC(C)C)cc12` [Example 61, [3-(1-amino-4-methylphthalazin-6-yl)-4-(4-methylpentanoylamino)phenyl]boronic Acid Formic Acid Salt], the IC50 is 6.76 nM. For `Cc1nnc(N)c2ccc(-c3cc(B(O)O)ccc3P(C)(C)=O)cc12` [Example 62, [3-(1-amino-4-methylphthalazin-6-yl)-4-dimethylphosphorylphenyl]boronic Acid Formic Acid Salt] the value was 28.8 nM; for `COc1cc(C(F)(F)F)c(-c2ccc3c(N)nnc(C)c3c2)cc1B(O)O` [Example 63, [5-(1-amino-4-methylphthalazin-6-yl)-2-methoxy-4-(trifluoromethyl)phenyl]boronic Acid], 2.14 nM; for `CC(C)CC(=O)Nc1ccc(B(O)O)cc1-c1ccc2c(N)cnnc2c1` [Example 64, [3-(4-aminocinnolin-7-yl)-4-(3-methylbutanamido)phenyl]boronic Acid Formic Acid Salt], 15.1 nM. For `CC(C)CCC(=O)Nc1ccc(B(O)O)cc1-c1ccc2c(N)cnnc2c1` [Example 65, [3-(4-aminocinnolin-7-yl)-4-(4-methylpentanamido)phenyl]boronic Acid Formic Acid Salt] the value was 57.5 nM. Consider `Cc1nnc(N)c2ccc(-c3ccc4c(c3)B(O)OCC4(F)F)cc12` [Example 66, 6-(4,4-difluoro-1-hydroxy-3H-2,1-benzoxazonin-7-yl)-4-methylphthalazin-1-amine], for which the IC50 is 17.4 nM. Consider `COc1ccc(B(O)O)cc1-c1cc(C)c2c(N)cnnc2c1` [Example 67, [3-(4-amino-5-methylcinnolin-7-yl)-4-methoxyphenyl]boronic Acid], for which the IC50 is 17 nM. Under `Cc1nnc(N)c2ccc(-c3c(C(F)(F)F)ccc(B(O)O)c3F)cc12` [Example 68, [3-(1-amino-4-methylphthalazin-6-yl)-2-fluoro-4-(trifluoromethyl)phenyl]boronic Acid] stands 129 nM.

As to `Cc1nnc(N)c2ccc(-c3ccc(NC(=O)c4ccccc4)c(B(O)O)c3)cc12` [Example 70, [5-(1-amino-4-methylphthalazin-6-yl)-2-benzamidophenyl]boronic Acid], the IC50 was 3.8 nM. `Cc1nnc(N)c2ccc(-c3cnc(C(F)(F)F)c(B(O)O)c3)cc12` [Example 71, [5-(1-amino-4-methylphthalazin-6-yl)-2-(trifluoromethyl)pyridin-3-yl]boronic Acid]: the IC50 is 2.95 nM. For `Cc1nnc(N)c2ccc(-c3ccc(C(F)(F)F)c(B(O)O)c3)cc12` [Example 74, [5-(1-amino-4-methylphthalazin-6-yl)-2-(trifluoromethyl)phenyl]boronic Acid] the value was 1.95 nM. Under `CNc1cnnc2cc(-c3cc(B(O)O)ccc3OC)ccc12` [Example 75, [4-methoxy-3-[4-(methylamino)cinnolin-7-yl]phenyl]boronic Acid] stands 224 nM.

As for `CC(C)NC(=O)COc1ccc(B(O)O)cc1-c1ccc2c(N)cnnc2c1` [Example 76, [3-(4-aminocinnolin-7-yl)-4-[2-oxo-2-(propan-2-ylamino)ethoxy]phenyl]boronic Acid], the IC50 is 2.88 nM. Under `Nc1cnnc2cc(-c3cc(B(O)O)ccc3OC[C@@H]3CC(F)(F)CN3)ccc12` [Example 79, [3-(4-aminocinnolin-7-yl)-4-[[(2S)-4,4-difluoropyrrolidin-2-yl]methoxy]phenyl]boronic acid] stands 0.891 nM; under `COc1ccc(B(O)O)cc1-c1ccc2ccnnc2c1` [Example 80, [3-(cinnolin-7-yl)-4-methoxyphenyl]boronic Acid], 617 nM.

On to `Nc1cnnc2cc(-c3cc(B(O)O)ccc3OCC3CCCO3)ccc12` (centres unmarked) [Example 82, [3-(4-aminocinnolin-7-yl)-4-(oxolan-2-ylmethoxy)phenyl]boronic Acid], for which the IC50 is 0.575 nM. As for `COc1cc(C(F)(F)F)c(B(O)O)cc1-c1ccc2c(N)cnnc2c1` [Example 83, [5-(4-aminocinnolin-7-yl)-4-methoxy-2-(trifluoromethyl)phenyl]boronic Acid], the IC50 is 4.57 nM. For `Cc1nnc(N)c2ccc(-c3cc(B(O)O)cnc3C(F)(F)F)cc12` [Example 84, [5-(1-amino-4-methylphthalazin-6-yl)-6-(trifluoromethyl)pyridin-3-yl]boronic Acid] the value was 11.7 nM.

As for `Cc1nnc(N)c2ccc(-c3cc(B(O)O)ccc3NC(=O)c3cnsc3)cc12` [Example 87, [3-(1-amino-4-methylphthalazin-6-yl)-4-(1,2-thiazole-4-amido)phenyl]boronic Acid], the IC50 is 11200 nM. With `Nc1cnnc2cc(-c3ccc(C(F)(F)F)c(B(O)O)c3)ccc12` [Example 88, [5-(4-aminocinnolin-7-yl)-2-(trifluoromethyl)phenyl]boronic Acid], the IC50 was 5.75 nM.

In the case of `Cc1nnc(N)c2ccc(-c3ccc(NC(=O)C(C)C)c(B(O)O)c3)cc12` [Example 89, [5-(1-amino-4-methylphthalazin-6-yl)-2-(2-methylpropanamido)phenyl]boronic Acid], the IC50 was 5.89 nM. For `Nc1cnnc2cc(-c3cc(B(O)O)ccc3OCC3(C(F)(F)F)CC3)ccc12` [Example 91, [3-(4-aminocinnolin-7-yl)-4-{[1-(trifluoromethyl)cyclopropyl]methoxy}phenyl]boronic Acid] the value was 1.62 nM. For `COc1ccc(B(O)O)cc1-c1cc2nncc(N)c2cc1F` [Example 92, [3-(4-amino-6-fluorocinnoline-7-yl)-4-methoxyphenyl]boronic Acid] the value was 17.4 nM. `Cc1nnc(N)c2ccc(-c3ccc(NC(=O)c4ccccc4Cl)c(B(O)O)c3)cc12` [Example 93, [5-(1-amino-4-methylphthalazin-6-yl)-2-[(2-chlorobenzoyl)amino]phenyl]boronic Acid]: the IC50 was 1 nM. Under `Nc1cnnc2cc(-c3c(OC(F)F)ccc(B(O)O)c3F)ccc12` [Example 97, [3-(4-aminocinnolin-7-yl)-4-(difluoromethoxy)-2-fluorophenyl]boronic Acid] stands 11.7 nM; under `Nc1cnnc2cc(-c3cc(B(O)O)ccc3OCc3cnsc3)ccc12` [Example 98, [3-(4-aminocinnolin-7-yl)-4-[(1,2-thiazol-4-yl)methoxy]phenyl]boronic Acid], 0.871 nM.

Consider `Nc1cnnc2cc(-c3cc(F)c4c(c3)B(O)OCC4)ccc12` [Example 99, 7-(4-aminocinnolin-7-yl)-5-fluoro-3,4-dihydro-1H-2,1-benzoxazonin-1-ol], for which the IC50 was 1.55 nM.
